The values below are quoted from earlier work in patent publication US11607129B2, “Combined positron emission tomography (PET)-electron paramagnetic resonance (EPR) imaging device” (West Virginia University, priority 2018, dated 2023).

This series relates to mouse. To be noted: as confirmed by recent cytotoxicity studies; probe hydrophilic, remains extracellular.

With “phosphonated triarylmethyl radicals [pTAM]”, the “toxicity to the mouse” value was “minimal toxicity”.
